Earlier results on two molecules are cited in patent US10391330B2, “Non-invasive systems and methods for in-situ photobiomodulation” (priority 2008, dated 2019).

One data set deals with T cells. The following applies: combination with UVA radiation.
The conditions of data set [1]: clinical use.

As for `COc1c2occc2cc2ccc(=O)oc12` [Compound 8-MOP, 8-methoxypsoralen], the “apoptosis of the treated T cells” value with T cells is “causes apoptosis”.

As to `Oc1cccc(-c2c3nc(c(-c4cccc(O)c4)c4ccc([nH]4)c(-c4cccc(O)c4)c4nc(c(-c5cccc(O)c5)c5ccc2[nH]5)CC4)C=C3)c1` [Foscan, Tetra (m-hydroxyphenyl) chlorin], the “duration of skin photosensitivity” value in data set [1] is given as “approximately 2 weeks”.
